Experimental findings from article PMC5431190, “Investigation of cationicity and structure of pseudin-2 analogues for enhanced bacterial selectivity and anti-inflammatory activity” (Scientific Reports, 2017) are described below.

≈ marks a conversion by molar mass, not a printed value. Residues, ends and D or L forms follow the SMILES beside them.

The test system of data set [1] is Escherichia coli CCARM 1238 (MDREC 1238). The data set is classed as cell-based. As to conditions: multidrug-resistant strain; 1% peptone media, 16 h at 37 °C. Summed up: (§1)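 Mid-log cells in 1% peptone, 2 × 10^6 CFU/ml prior to equal-volume mixing, were challenged with doubling peptide dilutions; MIC was scored after 16 h incubation at 37 °C.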
Data set [2] concerns Acinetobacter baumannii CCARM 12035 (MDRAB 12035). The format is cell-based. The following applies: multidrug-resistant strain; 1% peptone media, 16 h at 37 °C. Summed up: as §1
Data set [3] concerns Escherichia coli KCTC 1682. The data set is classed as cell-based. The following applies: KCTC 1682, 16 h. Summed up:
as §1

Data set [4] relates to Pseudomonas aeruginosa CCARM 2095 (MDRPA 2095). The format is cell-based. As to conditions: multidrug-resistant strain; 1% peptone media, 16 h at 37 °C. The method in brief:
as §1

For data set [5], the system named is Pseudomonas aeruginosa CCARM 2002 (MDRPA 2002). The data set is classed as cell-based. The following applies: multidrug-resistant strain; 1% peptone media, 16 h at 37 °C. Summed up:
as §1

Data set [6] concerns Staphylococcus aureus KCTC 1621. The format is cell-based. The following applies: KCTC 1621, 16 h. The method in brief: as §1
The test system of data set [7] is Pseudomonas aeruginosa KCTC 1637. The format is cell-based. As to conditions: KCTC 1637, 16 h. The method in brief:
as §1

In data set [8] the test system is Staphylococcus epidermidis KCTC 1917. The format is cell-based. As to conditions: KCTC 1917, 16 h. Summed up: as §1
Data set [9] has as its system Escherichia coli CCARM 1229 (MDREC 1229). The data set is classed as cell-based. As to conditions: multidrug-resistant strain; 1% peptone media, 16 h at 37 °C. The method in brief:
as §1

For data set [10], the system named is Salmonella typhimurium CCARM 8007 (MDRST 8007). The data set is classed as cell-based. The following applies: multidrug-resistant strain; 1% peptone media, 16 h at 37 °C. Summed up:
as §1

Data set [11] relates to Gram-positive bacteria (S. aureus, B. subtilis, S. epidermidis). The data set is classed as cell-based. The following applies: 16 h. The method in brief: (§2)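 MICs were determined by broth microdilution. Bacteria grown overnight in LB at 37 °C were subcultured in 1% peptone to mid-log phase, then mixed equally with 2-fold serial peptide dilutions at 2 × 10^6 CFU/ml (pre-mixing density) and incubated 16 h at 37 °C.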

The subject of data set [12] is Salmonella typhimurium KCTC 1926. The data set is classed as cell-based. As to conditions: KCTC 1926, 16 h. Summed up: as §1
For data set [13], the system named is Acinetobacter baumannii CCARM 12036 (MDRAB 12036). The data set is classed as cell-based. The following applies: multidrug-resistant strain; 1% peptone media, 16 h at 37 °C. Summed up: as §1
In data set [14] the test system is Salmonella typhimurium CCARM 8003 (MDRST 8003). The format is cell-based. As to conditions: multidrug-resistant strain; 1% peptone media, 16 h at 37 °C. Summed up:
as §1

Data set [15] deals with Gram-negative bacteria (E. coli, A. baumannii, P. aeruginosa, S. typhimurium). The data set is classed as cell-based. The following applies: 16 h. Summed up:
as §2

Data set [16] deals with Acinetobacter baumannii KCTC 2508. The data set is classed as cell-based. The following applies: KCTC 2508, 16 h. The method in brief: as §1
Data set [17] has as its system Bacillus subtilis KCTC 3028. The data set is classed as cell-based. The following applies: KCTC 3028, 16 h. Summed up: as §1
For data set [18], the system named is mouse macrophage RAW264.7 cells. As to conditions: 50 μM peptide, MTT, 18 h at 37 °C.
Description: (§3) The MTT assay was used to determine the cytotoxicity of each peptide against mouse macrophage RAW264.7 cells and mouse bone marrow-derived dendritic cells. Bone marrow was isolated from 6-week-old female C57BL mice. Red blood cell lysis buffer (Sigma) was used to lyse red blood cells in the bone marrow. Then, the bone marrow was cultured in RPMI 1640 containing 10% foetal bovine serum and 20 ng/ml GM-CSF. After three days, floating cells were gently removed, and fresh medium was added. Dendritic cells were extracted three days later. Cells were cultured on 96-well plates at a density of 1 × 10^4 cells/well in RPMI 1640 containing 10% foetal bovine serum. Different concentrations of peptides were added and incubated for 18 h at 37 °C. Subsequently, 20 μl of MTT (5 mg/ml) was added to each well and then incubated for 4 h at 37 °C. An ELISA reader was used to measure the absorbance at 570 nm. A 100% cytotoxic control was generated by treatment with 0.1% Triton X-100.
The test system of data set [19] is S. aureus 3089(R) (MRSA 3089). The format is cell-based, Staphylococcus aureus. As to conditions: multidrug-resistant strain; 1% peptone media, 16 h at 37 °C.
For data set [20], the system named is S. aureus 3126(R) (MRSA 3126). The format is cell-based, Staphylococcus aureus. As to conditions: multidrug-resistant strain; 1% peptone media, 16 h at 37 °C.
The subject of data set [21] is S. aureus 3108(R) (MRSA 3108). The format is cell-based, Staphylococcus aureus. As to conditions: multidrug-resistant strain; 1% peptone media, 16 h at 37 °C.
Data set [22] concerns mouse bone marrow-derived dendritic cells. The following applies: 50 μM peptide, MTT, 18 h at 37 °C.
Description: as §3
In data set [23] the test system is human red blood cells (hRBCs). Kind of data set: Haemolytic activity. The following applies: red cells of human, 1 h. The format is cell-based. The method in brief: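 hRBCs were washed in PBS, then incubated with peptides in PBS at 4% (v/v) cells for 1 h at 37 °C. After centrifugation, haemolysis was read as supernatant absorbance at 405 nm. 0.1% Triton X-100 defined 100% lysis.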

Data set [24] is described as follows: LPS neutralization (LAL assay). The data set is classed as biochemical. As to the method: LPS neutralization by the peptides were measured using LAL-QCL-1000^TM (Lonza, USA) kit using a modified protocol as described previously. The interaction between each peptide and FITC-LPS was monitored according to the change in fluorescence intensity (excitation = 480 nm, emission = 515 nm). Peptides and 0.5 μg/ml FITC-LPS were prepared in 10 mM phosphate buffer (pH 6.0). The binding between rhTLR4 (from R&D systems, Minneapolis, USA) or rhMD2 (R&D systems, Minneapolis, USA) and peptides was determined using the BLItz system (ForteBio, Menlo Park, CA)[53]. A Ni-NTA sensor was used to detect rhTLR4 and rhMD2 binding. Before the binding assay, the biosensor was hydrated for 10 min in PBS. An initial baseline of 15 s, loading for 60 s, baseline for 30 s, association for 60 s and dissociation for 60 s were used for measurement.

Regarding `CC[C@H](C)[C@H](NC(=O)CNC(=O)[C@H](CCC(N)=O)NC(=O)[C@H](Cc1ccccc1)NC(=O)[C@@H](NC(=O)[C@H](CCCCN)NC(=O)[C@H](CCCCN)NC(=O)[C@H](CC(C)C)NC(=O)[C@H](C)NC(=O)[C@H](CC(N)=O)NC(=O)[C@H](CC(C)C)NC(=O)CN)C(C)C)C(=O)N[C@@H](Cc1c[nH]cn1)C(=O)N[C@@H](CCC(=O)O)C(=O)N[C@@H](C)C(=O)N[C@H](C(=O)N[C@@H](CCCCN)C(=O)N[C@@H](CC(C)C)C(=O)N[C@H](C(=O)N[C@@H](CC(N)=O)C(=O)N[C@@H](CC(N)=O)C(=O)N[C@@H](Cc1c[nH]cn1)C(=O)N[C@H](C(=O)N[C@@H](CCC(N)=O)C(=O)O)C(C)C)[C@@H](C)CC)[C@@H](C)CC` [Ps, Pseudin-2] (H-GLNALKKVFQGIHEAIKLINNHVQ-OH), the “MIC, MDREC 1238” value in [1] was 1 µM (≈ 2.69 µg/mL). Further, the “MIC, MDRAB 12035” value in data set [2] stood at 1 µM (≈ 2.69 µg/mL). Moreover, the “MIC, E. coli” value in data set [3] was determined as 1 µM (≈ 2.69 µg/mL). In addition, the “MIC, MDRPA 2095” value in data set [4] is 2 µM (≈ 5.37 µg/mL). Also, in data set [5], the “MIC, MDRPA 2002” value was found to be 2 µM (≈ 5.37 µg/mL). Further, the “MIC, S. aureus” value in [6] is 4 µM (≈ 10.7 µg/mL). The “MIC, P. aeruginosa” value in data set [7] worked out at 2 µM (≈ 5.37 µg/mL). The “MIC, S. epidermidis” value in data set [8] was 4 µM (≈ 10.7 µg/mL). In addition, in [9], the “MIC, MDREC 1229” value turned out to be 2 µM (≈ 5.37 µg/mL). The “MIC, MDRST 8007” value in data set [10] turned out to be 2 µM (≈ 5.37 µg/mL). In [11], the “Average MIC, Gram-positive” value came to 4 µM. In addition, in data set [12], the “MIC, S. typhimurium” value was determined as 2 µM (≈ 5.37 µg/mL). In addition, the “MIC, MDRAB 12036” value in data set [13] stood at 2 µM (≈ 5.37 µg/mL). In addition, in [14], the “MIC, MDRST 8003” value was 4 µM (≈ 10.7 µg/mL). The “Average MIC, Gram-negative” value in data set [15] worked out at 1.5 µM. The “MIC, A. baumannii” value in data set [16] turned out to be 1 µM (≈ 2.69 µg/mL). The “MIC, B. subtilis” value in [17] was found to be 4 µM (≈ 10.7 µg/mL). For the same compound, the “survival of RAW264.7 cells” value in data set [18] was found to be 56%. The “MIC, MRSA 3089” value in [19] came out at 4 µM (≈ 10.7 µg/mL). In addition, the “MIC, MRSA 3126” value in data set [20] worked out at 4 µM (≈ 10.7 µg/mL). In data set [21], the “MIC, MRSA 3108” value came out at 4 µM (≈ 10.7 µg/mL). The “survival of dendritic cells” value in [22] is listed as 44%. The “MHC (minimal peptide concentration that produces haemolysis)” value in [23] was found to be 25 µM. Moreover, the “haemolysis at 100 μM” value in data set [23] (100) is “approximately 23%”.
In the case of LL-37, the “LPS neutralization (control peptide)” value in data set [24] was “high LPS neutralization”.
